Laboratory results reported in US20090047221A1 (NIPRI LIMITED, priority 2004, published 2009).
Where two headings read alike, the source gives them in different places.

Columns and labels:
Experiment in all cases: MTT assay (anti-proliferative activity)
Type in all cases: cell-based
MDA-MB-468 = conditions: read-out: IC 50 MDA-MB-468
Method: (§1) The MTT assay was used initially to determine the anti-proliferative activity of the test compounds. In the MTT assay a yellow thiazolyl blue tetrazolium bromide salt (MTT) is reduced, in metabolically active cells, to form insoluble purple formazan crystals which are solubilised by the addition of dimethyl sulphoxide (DMSO).
(§2) Wells containing medium only were used as blanks. Following the attachment period, cells were treated with appropriate drug concentrations (20 μl added per well). 40 mg/ml stock drug solutions, in DMSO, were stored at −20° C. and on the day of drug treatment working solutions of 4 mg/ml were prepared in medium which was further diluted to achieve final drug dilution volumes of 20 μl. Initial screening was determined over a concentration range of 1-200 μg/ml. […] Cells were exposed to drug for 96 h continual exposure (37° C., 5% CO2). Following the 96 h incubation, 50 μl MTT solution (1 g MTT/500 ml PBS) was added per well and the plates were further incubated for 4 h (37° C., 5% CO2). After incubation the MTT and medium was removed from the wells and 100 μl DMSO added per well. Plates were agitated on an orbital mixer platform (Stuart Scientific) for 10 minutes. Absorbance was measured at 570 nm on a Biotrak II (Amersham Bioscience) plate reader. IC50 values were calculated comparing control and drug treated cells.

MalMe3M = conditions: 96 h continual exposure, read-out: IC 50 MalMe3M
Method: as §1, §2

SkMel28 = conditions: read-out: IC 50 SkMel28
Method: as §1, §2

MCF-7 = conditions: read-out: IC 50 MCF-7
Method: as §1, §2

[1] = Homo sapiens, MCF7, 96 h continual exposure
[2] = Homo sapiens, MDA-MB-468, 96 h continual exposure
[3] = Homo sapiens, SK-MEL-28, 96 h continual exposure

SMILES | IC50 (MDA-MB-468; 96 h continual exposure) | IC50 (MCF-7; 96 h continual exposure) | IC50 (MCF-7; [1]) | IC50 (MDA-MB-468; [2]) | IC50 (MalMe3M) | IC50 (SkMel28; 96 h continual exposure) | IC50 (MalMe3M; Homo sapiens, Malme-3M) | IC50 (SkMel28; [3])
CC1Cc2ccc(C(=O)NCCC(=O)O)c(O)c2C(=O)O1 (racemic) | 222 µM | 136 µM | – | – | 290 µM | > 681 µM | – | –
COc1cc2c(c(O)c1OC)C(=O)OC(C)C2 (racemic) [ALM-1, Racemic (±)—Kigelin] | – | – | 630 µM | 306 µM | – | – | 714 µM | 718 µM
CCCCC/C=C\C/C=C\CCCCCCCC(=O)Oc1c(OC)c(OC)cc2c1C(=O)OC(C)C2 (racemic) [ALM-3, Racemic Kigelin Linoleyl Ester] | 99.9 µM | 150 µM | – | – | > 399 µM | > 399 µM | – | –
CC/C=C\C/C=C\C/C=C\CCCCCCCC(=O)Oc1c(OC)c(OC)cc2c1C(=O)OC(C)C2 (racemic) [ALM-4, Racemic Kigelin α-Linolenyl Ester] | 90.2 µM | 60.2 µM | – | – | 321 µM | > 401 µM | – | –
CCCCC/C=C\C/C=C\C/C=C\CCCCC(=O)Oc1c(OC)c(OC)cc2c1C(=O)OC(C)C2 (racemic) [ALM-5, Racemic Kigelin γ-Linolenyl Ester] | 50.1 µM | 20 µM | – | – | 150 µM | > 401 µM | – | –
COc1cc2c(c(OC)c1)C(=O)OC(C)C2 (racemic) [ALM-7, 6,8-Dimethoxy-3-methyl-isochroman-1-one] | – | – | 432 µM | 486 µM | – | – | 626 µM | > 900 µM
COc1cc(O)c2c(c1)CC(C)OC2=O (racemic) [ALM-8, 8-Hydroxy-6-methoxy-3-methylisochroman-1-one] | – | – | 428 µM | 428 µM | – | – | 663 µM | 725 µM
COc1cccc2c1C(=O)OC(C)C2 (racemic) [ALM-12, Racemic Mellein Methyl Ether] | – | – | > 1040 µM | 583 µM | – | – | > 1040 µM | > 1040 µM
CC/C=C\C/C=C\C/C=C\CCCCCCCC(=O)Oc1cccc2c1C(=O)OC(C)C2 (racemic) [ALM-19, Racemic Mellein α-Linolenyl Ester] | > 455 µM | > 455 µM | – | – | > 455 µM | > 455 µM | – | –
CC1Cc2c([N+](=O)[O-])cc([N+](=O)[O-])c(O)c2C(=O)O1 (racemic) [ALM-30, Racemic 2,4-dinitromellein] | – | – | 130 µM | 138 µM | – | – | 142 µM | 179 µM
CC1Cc2ccc(C(=O)Oc3ccccc3)c(O)c2C(=O)O1 (racemic) [ALM-37, Phenyl Ester] | 181 µM | 285 µM | – | – | 308 µM | 332 µM | – | –
CC1Cc2ccc(C(=O)OC3CCCCC3)c(O)c2C(=O)O1 (racemic) [ALM-38, Cyclohexyl Ester] | 131 µM | 98.6 µM | – | – | 131 µM | 131 µM | – | –
CC1Cc2ccc(C(=O)OC(C)(C)C)c(O)c2C(=O)O1 (racemic) [ALM-39, Tert-Butyl Ester] | 305 µM | 392 µM | – | – | 345 µM | 359 µM | – | –
CCCCCCOC(=O)c1ccc2c(c1O)C(=O)OC(C)C2 (racemic) [ALM-40, Hexyl Ester] | 42.4 µM | 65.3 µM | – | – | 114 µM | 163 µM | – | –
CCCCCCCCCCCCOC(=O)c1ccc2c(c1O)C(=O)OC(C)C2 (racemic) [ALM-41, Dodecyl Ester] | 166 µM | 192 µM | – | – | 333 µM | 256 µM | – | –

More lines, main results first:

IC50 (MDA-MB-468; 96 h continual exposure) | IC50 (MCF-7; 96 h continual exposure) | IC50 (MCF-7; [1]) | IC50 (MDA-MB-468; [2]) | SMILES | IC50 (MalMe3M) | IC50 (SkMel28; 96 h continual exposure) | IC50 (MalMe3M; Homo sapiens, Malme-3M) | IC50 (SkMel28; [3])
113 µM | – | – | – | CC(C)CC(NC(=O)c1ccc2c(c1O)C(=O)OC(C)C2)C(=O)O (mixture of isomers) [ALM-56, Leucine Amide] | 486 µM | > 596 µM | – | –
118 µM | 197 µM | – | – | CC1Cc2ccc(C(=O)NC(C(=O)O)c3ccccc3)c(O)c2C(=O)O1 (mixture of isomers) [ALM-64] | > 562 µM | > 562 µM | – | –
> 570 µM | > 570 µM | – | – | CC1Cc2ccc(C(=O)NC(CCCCN)C(=O)O)c(O)c2C(=O)O1 (mixture of isomers) [ALM-67] | > 570 µM | > 570 µM | – | –
345 µM | 613 µM | – | – | CC(=O)Oc1cccc2c1C(=O)OC(C)C2 (racemic) [ALM-15, Acetyl rac-Mellein] | 613 µM | 622 µM | – | –
240 µM | 296 µM | – | – | CCOC(=O)Oc1cccc2c1C(=O)OC(C)C2 (racemic) [ALM-16, Racemic Mellein Ethyl Carbonate] | 456 µM | 360 µM | – | –
> 453 µM | > 453 µM | – | – | CCCCC/C=C\C/C=C\CCCCCCCC(=O)Oc1cccc2c1C(=O)OC(C)C2 (racemic) [ALM-18, Racemic Mellein Linoleyl Ester] | > 453 µM | > 453 µM | – | –
> 455 µM | 342 µM | – | – | CCCCC/C=C\C/C=C\C/C=C\CCCCC(=O)Oc1cccc2c1C(=O)OC(C)C2 (racemic) [ALM-20, Racemic Mellein γ-Linolenyl Ester] | > 455 µM | > 455 µM | – | –
469 µM | > 1020 µM | – | – | CC1Cc2c(F)ccc(O)c2C(=O)O1 (racemic) [ALM-23, Racemic Para-Fluoromellein] | > 1020 µM | > 1020 µM | – | –
– | – | 261 µM | 171 µM | CC1Cc2c(Br)ccc(O)c2C(=O)O1 (racemic) [ALM-24] | – | – | 249 µM | 296 µM
– | – | 329 µM | 263 µM | CC1Cc2c(I)ccc(O)c2C(=O)O1 (racemic) [ALM-26, Racemic Para-Iodomellein] | – | – | 168 µM | –
– | – | 116 µM | 48.8 µM | CC1Cc2c(I)cc(I)c(O)c2C(=O)O1 (racemic) [ALM-27, Racemic 2,4-di-iodomellein] | – | – | 109 µM | 76.8 µM
– | – | 594 µM | 211 µM | COc1ccc(I)c2c1C(=O)OC(C)C2 (racemic) [ALM-28] | – | – | 484 µM | 283 µM
– | – | 341 µM | 341 µM | CC(=O)c1ccc2c(c1O)C(=O)OC(C)C2 (racemic) [ALM-29, Racemic ortho-acetylmellein] | – | – | 341 µM | 363 µM
– | – | > 900 µM | 585 µM | CC1Cc2ccc(C(=O)O)c(O)c2C(=O)O1 (racemic) [ALM-33, 8-Hydroxy-3-methyl-1-oxo-isochroman-7-carboxylic acid] | – | – | > 900 µM | > 900 µM
– | – | > 847 µM | 360 µM | COC(=O)c1ccc2c(c1O)C(=O)OC(C)C2 (racemic) [ALM-34, 8-Hydroxy-3-methyl-1-oxo-isochroman-7-carboxylic acid methyl ester] | – | – | > 847 µM | > 847 µM
99.3 µM | – | – | – | CC1Cc2ccc(C(=O)OCc3ccccc3)c(O)c2C(=O)O1 (racemic) [ALM-36, Benzyl Ester] | 106 µM | 176 µM | – | –
317 µM | > 423 µM | – | – | CCCCCCCC/C=C\CCCCCCCCOC(=O)c1ccc2c(c1O)C(=O)OC(C)C2 (racemic) [ALM-42, Oleyl Ester] | > 423 µM | > 423 µM | – | –
41.8 µM | 86.7 µM | – | – | CC1Cc2ccc(C(=O)NCc3ccccc3)c(O)c2C(=O)O1 (racemic) [ALM-44, Benzyl Amide] | 128 µM | 270 µM | – | –
